“Also recorded” adds a separate entry of the source.
Key:
[1] = in vivo; cited from earlier work
[2] = cited from earlier work
primary cortical neurons [3] = test: MTT viability of primary cortical neurons exposed to Aβ oligomers pre-incubated with compound; assay type: cell-based, Htau mice; settings: 0.5 μM Aβ oligomers, 5 μM curcumin derivatives
Method: Aβ oligomers (AβO) were prepared as previously described (Lasagna-Reeves, Castillo-Carranza et al. 2010) by dissolving 0.3 mg of Aβ pellet in 200 μL of hexafluoroisopropanol (HFIP) and incubating for 10-20 min at room temperature. The resulting solution was added to 700 μL of ddH2O in a siliconized Eppendorf tube with holes placed on top of the cap to allow the slow evaporation of HFIP. The samples were then stirred at 500 rpm using a Teflon-coated micro stir bar for 48 hours at room temperature in the fume hood.
(§1) Compounds were dissolved in ETOH 75%/DMSO (5:1) at a final concentration of 5 mM and diluted in 1× PBS or ddH2O for incubation or toxicity assay (final concentration 5 μM). Aβ oligomers in the presence of the small molecules and controls were incubated on an orbital shaker, without stirring, for 16 hours under oligomerization conditions as previously described (Lo Cascio and Kayed 2018).
(§2) Human neuroblastoma SH-SY5Y cells were maintained in Dulbecco's modified Eagle's medium (DMEM) and grown to confluence in 96-well plates. […] Cells viability was corrected by the vehicle background. All measurements were performed in triplicate. The cytotoxic effect was determined using 3-(4,5-dimethylthiazol-2-yl)-2,5-diphenyltetrazolium bromide (MTT) assay for assessing cell viability following manufacturer's instructions. Optical density (OD) was measured at 490 nm with POLARstar OMEGA plate reader (BMG Labtechnologies). Cell viability was calculated as the percentage of the OD value of treated cells compared with untreated controls, according to the following equation: Viability=(OD SAMPLE/OD CONTROL)×100. Statistical analysis was based on one-way analysis of variance (ANOVA), performed using GraphPad Prism 6.01.
(§3) Primary cortical neurons from transgenic mice expressing human full-length tau were prepared and maintained as described previously (Beaudoin, Lee et al. 2012). Briefly, cortical neurons were isolated from embryos at embryonic day 16-18 using Accutase solution (Sigma). Dissociated neurons were plated at a density of […] in 96-well plates containing high glucose Dulbecco's Modified Eagle Medium (DMEM, Corning) supplemented with 2% B27 (Gibco), 10,000 units/mL penicillin, 10,000 μg/mL streptomycin , and 25 μg/mL Amphotericin B (Gibco). After 2 hours, plating medium was removed from cells and replaced with Neurobasal medium (Gibco) plus 2% B27, […] (Hyclone), 10,000 units/mL, 10,000 μg/mL streptomycin, and 25 μg/mL Amphotericin B supplement. Cells were grown for 10-12 days in vitro before experiments and 50% of media changes were performed every 3 days. […] The MTT viability assay was performed as previously described (Cell Toxicity Assay—MTT).

[4] = target: T1, recombinant tau oligomers (TauO) (Homo sapiens, UniProt P10636); test: Atomic force microscopy of recombinant tau oligomers after compound treatment; settings: 5 μM of curcumin derivatives
T1 construct: made in house
Method: (§4) Tau oligomers were characterized by AFM as previously described (Lasagna-Reeves, (2010)0. Briefly, samples were prepared by adding 10 μl tau oligomers in the absence and presence of AC on freshly-cleaved mica and were allowed to adsorb to the surface. Mica were then washed three times with distilled water to remove unbound protein and impurities followed by air-drying. Samples were then imaged with Multimode 8 AFM machine (Veeco, CA) using a non-contact tapping method (ScanAsyst-Air).
as §1, with “Tau” for “Aβ”
as §4, with “(Lasagna-Reeves, Castillo-Carranza et al. 2010).” for “(Lasagna-Reeves, (2010)0.”, “absence or” for “absence and”

primary cortical neurons [5] = test: MTT viability of primary cortical neurons exposed to TauO pre-incubated with compound; assay type: cell-based, Htau mice; settings: 0.5 μM tau oligomers, 5 μM curcumin derivatives, 2 hours
Method: as §1, with “Tau” for “Aβ”
as §2, §3

primary cortical neurons [6] = test: MTT viability of primary cortical neurons exposed to PSP BDTOs with and without compound; assay type: cell-based, Htau mice; settings: 0.5 μM BDTOs, CL3 final concentration 5 μM
Method: as §2
as §1, with “Tau” for “Aβ”, “conditions.” for “conditions as previously described (Lo Cascio and Kayed 2018).”
(§5) Primary cortical neurons from transgenic mice expressing human full-length tau were prepared and maintained as described previously (Beaudoin, Lee et al. 2012). […]

PSP BDTOs = test: Atomic force microscopy of PSP BDTOs with and without compound; settings: with CL3
Method: as §4, with “(Lasagna-Reeves, Castillo-Carranza et al. 2010).” for “(Lasagna-Reeves, (2010)0.”, “absence or” for “absence and”
as §1, with “Tau” for “Aβ”, “conditions.” for “conditions as previously described (Lo Cascio and Kayed 2018).”
(§6) Immunoprecipitated tau oligomers were characterized using various biochemical methods as previously described (Lasagna-Reeves 2012, Gerson, Castillo-Carranza et al. 2016). AFM was performed to visualize the morphologies of oligomeric assemblies of isolated proteins. Isolated oligomers (5 μL) were injected into an LC-6AD Shimadzu HPLC system fitted with a TSK-GEL G3000 SWXL (30 cm×7.8 mm) column, Supelco-808541 to determine the size of the isolated oligomers. PBS (pH 7.4) was used as the mobile phase with a flow rate of 0.5 mL/min. […]

AD BDTOs = test: Atomic force microscopy of AD BDTOs with and without compound; settings: with CL3
Method: as §4, with “(Lasagna-Reeves, Castillo-Carranza et al. 2010).” for “(Lasagna-Reeves, (2010)0.”, “absence or” for “absence and”
as §1, with “Tau” for “Aβ”, “conditions.” for “conditions as previously described (Lo Cascio and Kayed 2018).”
as §6

primary cortical neurons [7] = test: BDTOs with and without CL3 taken up by primary cortical neurons, Western blot of cytoplasmic fraction; assay type: cell-based; settings: 0.5 μM DLB, AD and PSP BDTOs, 5 μM CL3, 24 hrs
Method: FIG. 15. Disease-relevant brain-derived tau oligomers with and without CL3 taken up by primary cortical neurons. Primary cortical neurons were exposed to 0.5 μM DLB, AD and PSP BDTOs in the presence and absence of 5 μM CL3 for 24 hrs. Tau levels are evaluated in the cytoplasmic fraction using the generic tau antibody, Total Tau. […] PSP show to more efficiently decrease monomeric tau in the cytoplasmic fraction as compared to DLB and AD. […] Data were compared by one-way analysis of variance (ANOVA) followed by Dunnett's multiple comparison test: Ctrl vs DLB, DLB+CL3, AD, AD+CL3, PSP, PSP+CL3: **p<0.01; ***p<0.001; ****p<0.0001. Bars and error bars represent the mean and standard deviation.

primary cortical neurons [8] = test: MTT viability of primary cortical neurons exposed to AD BDTOs with and without compound; assay type: cell-based, Htau mice; settings: 0.5 μM BDTOs, CL3 final concentration 5 μM
Method: as §2
as §1, with “Tau” for “Aβ”, “conditions.” for “conditions as previously described (Lo Cascio and Kayed 2018).”
as §5

T1 sequence (P10636 1-441 isoform P10636-8): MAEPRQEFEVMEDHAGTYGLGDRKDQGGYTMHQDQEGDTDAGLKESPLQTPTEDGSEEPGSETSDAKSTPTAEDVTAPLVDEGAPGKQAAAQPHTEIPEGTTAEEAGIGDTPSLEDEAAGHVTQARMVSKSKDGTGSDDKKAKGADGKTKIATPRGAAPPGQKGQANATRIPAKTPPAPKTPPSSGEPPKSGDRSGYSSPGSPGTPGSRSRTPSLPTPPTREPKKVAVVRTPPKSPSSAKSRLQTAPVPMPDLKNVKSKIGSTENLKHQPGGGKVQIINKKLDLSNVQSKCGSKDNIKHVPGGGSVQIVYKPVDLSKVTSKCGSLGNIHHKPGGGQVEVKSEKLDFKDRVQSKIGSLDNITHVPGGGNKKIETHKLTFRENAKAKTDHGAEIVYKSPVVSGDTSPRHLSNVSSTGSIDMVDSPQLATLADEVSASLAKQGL

| Compound | bioavailability [1] | solubility in aqueous media [2] | viability of neuronal culture exposed to AβO pre-incubated with compound (primary cortical neurons [3]) | morphology and aggregation state of TauO by AFM [4] | viability of neuronal culture exposed to TauO pre-incubated with compound (primary cortical neurons [5]) | PSP BDTOs-induced toxicity in primary neurons (cell viability) (primary cortical neurons [6]) | morphology and aggregation state of PSP BDTOs by AFM (PSP BDTOs) | morphology and aggregation state of AD BDTOs by AFM (AD BDTOs) | effect of BDTO pretreatment on tau levels in cytoplasmic fraction of primary neurons (primary cortical neurons [7]) | AD BDTOs-induced toxicity in primary neurons (cell viability) (primary cortical neurons [8]) |
| --- | --- | --- | --- | --- | --- | --- | --- | --- | --- | --- |
| COc1cc(/C=C/C(=O)COC(=O)/C=C/c2ccc(O)c(OC)c2)ccc1O [Calebin-A] | low bioavailabity | poor solubity in water | – | – | – | – | – | – | – | – |
| O=C(/C=C/c1ccc(Cl)cc1)COC(=O)/C=C/c1ccc(Cl)cc1 [Cal7] | – | – | no changes in cells viability as compared to AβO alone | converting TauO into much larger aggregates | significantly higher cells viability as compared to TauO alone | – | – | – | – | – |
| O=C(/C=C/c1ccc(F)cc1)C(=O)/C=C/c1ccc(F)cc1 [CL3] | – | – | no changes in cells viability as compared to AβO alone | converting TauO into much larger aggregates | significantly higher cells viability as compared to TauO alone | reduced PSP-derived tau oligomers toxicity; also recorded: able to rescue primary neurons from PSP BDTOs-induced toxicity; also recorded: modulates PSP BDTOs associated neurotoxicity | formation of larger tau aggregates | no morphological changes were observed | differently modulate their aggregation states | not be able to modulate and neutralize AD BDTOs-induced toxicity; also recorded: no effect in preventing AD BDTOs-induced toxicity |
| CC(=O)/C=C/c1ccc(C)cc1 [HemiC9] | – | – | no changes in cells viability as compared to AβO alone | converting TauO into much larger aggregates | significantly higher cells viability as compared to TauO alone | – | – | – | – | – |
| COc1cc(/C=C/C(=O)OCC(=O)/C=C/c2ccc(OC)c(OC)c2)ccc1F [Cal9] | – | – | no changes in cells viability as compared to AβO alone | converting TauO into much larger aggregates | significantly higher cells viability as compared to TauO alone | – | – | – | – | – |
